Measured values: patent publication US11566049B2, “Cyclic peptides and uses thereof” (LATERAL IP PTY LTD, priority 2018, dated 2023)
“Also recorded” adds a separate entry of the source. Positions of bridges follow the written chain, without caps; N, C: chain ends. No end group written: not given here.

Tests used:
Chung model rats = assay: Chung model of neuropathic pain, paw withdrawal (Example 2); type: in vivo, rat; details: 10 mg/kg orally or intramuscular; 1, 2 and 4 hours post-dosing; n=8
Protocol: The peptide of SEQ ID NO:26 was administered at 10 mg/kg either orally (PQ) or by intramuscular (IM) injection to Chung model rats and pain was assessed by paw withdrawal. Pre-dosing control; Vehicle: 5% DMSO in PBS. *** p<0.001, compared to the same time points in the Vehicle control group; #p<0.05, compared to SEQ ID NO:26 PO group at the same time point. n=8 for each group.
An […] Chung model of chronic nerve constriction in rats (Chung et al., Methods Mol. Med. 2004; 99:35-45) was used to assess the effect of SEQ ID NO:26 on neuropathic pain. SEQ ID NO:26 was administered at 10 mg/kg either orally or by intramuscular injection to Chung model rats and pain was assessed by paw withdrawal.

[1] = tested on: Lamina I or II neurons in the dorsal horn; assay: whole-cell patch clamp recording in spinal cord slices with intact dorsal root afferents from Chung models (Example 1); type: cell-based, rat
Protocol: An in vitro spinal cord slice with intact dorsal root afferents combined with single-cell whole-cell patch claim electrophysiological recording techniques was used to assess the electrophysiological properties of SEQ ID NO:26 (SCRSRPVESSC; also referred to herein as LAT9993).
Spinal cord slices were prepared from models of neuropathic pain (Chung models; as previously described in Chung et al., Methods Mol Med. 2004; 99:35-45, the contents of which are incorporated herein by reference) and tested against the peptide of SEQ ID NO:26. Chung model rats, aged 8 to 12 weeks, were housed in an air-conditioned room on a 12 hour light/dark cycle with food and water available ad libitum. The rats were terminally anaesthetized using isofluorane and decapitated. […]
Whole-cell recordings were performed at 34-35° C. from Lamina I or II neurons in the dorsal horm of the spinal cord slices using Axopatch 1D and/or Multiclamp 700B amplifies and using the “blind” version of the patch-clamp technique. […] Biocytin was included in the patch solution to allow post-recording identification of the recorded neurons. The peptide of SEQ ID NO:26 was applied to the recorded tissue in the tissue bath at concentrations between 0.5 μM and 5 μM.

SCRSRPVESSC (disulfide 2-11 (inferred); listed as Homo sapiens) [SEQ ID NO:26, cyclic peptide of formula (I) formed by a disulphide bond between the two cysteine residues]
pain as measured by paw withdrawal threshold (PWT) (Chung model rats): significantly reduced pain | neuronal input resistance (effect in words) ([1]; 1 μM (FIG. 2), bath applied): reduction in neuronal input resistance; also recorded: reversible on washout | excitatory postsynaptic potentials (EPSPs) ([1]; 5 μM (FIG. 3), 0.1 Hz, 1 Hz): suppressed
